The values below come from publication PMC8317958, “Design, synthesis and biological evaluation of novel thiazole-naphthalene derivatives as potential anticancer agents and tubulin polymerisation inhibitors” (Journal of Enzyme Inhibition and Medicinal Chemistry, 2021).

The subject of test [1] is human lung adenocarcinoma cell line (A549). As to the kind of experiment: Antiproliferative activity, CCK-8 assay, A549. It counts as cell-based. The settings on record: CCK-8, means of three experiments. For orientation: Tetrazolium assays rely on reduction of a dye to a coloured formazan, in cell work by metabolically active cells.
The subject of test [2] is human breast cancer cell line (MCF-7). As to the kind of experiment: Antiproliferative activity, CCK-8 assay, MCF-7. The class given is cell-based. The settings on record: CCK-8, 48 h, means of three experiments. On the procedure: Cell culture and cytotoxicity assay […]
against MCF-7 human breast cancer cell line by using the CCK -8 assay with cisplatin, […]
cultured in RPMI-1640 medium containing 10% fetal bovine serum in a humidified 5% CO2 atmosphere at 37 °C. Cells were seeded into 96-well plates at a density of 1×10^5 cells/well and incubated for 24 h. After incubation, the cells were treated with vehicle control, reference drugs, or title compounds, and incubated at 37 °C for 48 h.
Then CCK-8 was added and incubated for another 4 h. The absorbance values of the solution at 450 nm were measured using microplate reader, and each experiment was performed at least in triplicate. Then the results were expressed as the IC50 values. […]

For test [3], the system named is purified tubulin protein. As to the kind of experiment: In vitro tubulin polymerisation assay. It counts as biochemical. The following applies: 37 °C, 20 min incubation. The procedure:
1.3. In vitro tubulin polymerization assay
The purified tubulin protein was mixed with different concentrations of compound 5b […]
PEM buffer (100 mM PIPES, 1 mM MgCl2, and 1 mM EGTA) with 1 mM GTP and 5% glycerol. Then the mixture was immediately monitored under 340 nm at 37 °C every 1 min for 20 min using the spectrophotometer. The plateau absorbance values were used for calculations. The IC50 value was defined as the concentration of the compound

The subject of test [4] is MCF-7 cancer cells. As to the kind of experiment: Annexin V-FITC/PI apoptosis assay. It counts as cell-based, human. The following applies: 24 h; for total numbers of early and late apoptotic cells: control 4.93%. On the procedure:
Considering that tubulin polymerisation inhibitors can induce cellular apoptosis, the Annexin V-FITC/PI assay was performed to detect whether compound 5b was able to induce cancer cell apoptosis. […]
MCF-7 cells were seeded in 6-well plates (3 × 10^5 cells/well) and incubated with different concentrations of compound 5b (0.3125, 0.625, and 1.25 μM) or vehicle for 24 h. Cells were harvested and incubated with 5 μL of Annexin-V/FITC in 300 μL binding buffer for 15 min. Then, PI solution (10 μL) was added to the medium and […]
incubated for 5 min. […]

Test [5] has as its system normal human embryonic kidney cell line (HEK293). As to the kind of experiment: Inhibitory activity against normal cell line HEK293. It counts as cell-based.
Test [6] deals with MCF-7 cancer cells. As to the kind of experiment: Cell cycle analysis by flow cytometry. The class given is cell-based, human. The settings on record: 24 h; for G2 (G2/M) population: control 26.66%; for S population: control 33.42%; for G1 population: control 39.92%. The procedure: Based on the literature report, most tubulin destabilising agents can disrupt regulated cell cycle distribution and lead to cell cycle arrest at metaphase[23]^,[31]. Therefore, we evaluated the effect of the most promising compound 5b on the cell cycle of MCF-7 cancer cells using the flow cytometry analysis assay. In this study, MCF-7 cancer cells were incubated with different concentrations of 5b (0.3125, 0.625, and 1.25 μM) for 24 h. […]
MCF-7 cells were seeded in 6-well plates (3 × 10^5 cells/well) and incubated in the absence and presence of different concentrations of compound 5b (0.3125, 0.625, and 1.25 μM) for 24 h. Subsequently, the cells were harvested, washed with PBS, and fixed in 70% ice-cold ethanol at 4 °C overnight. After removed the ethanol in the next day, the cells were resuspended in the staining buffer and incubated with RNase and propidium iodide for 30 min. […]

The test system of test [7] is tubulin. Set-up: method as in PMID 31724435. The following applies: naphthalene-chalcone derivative of earlier work ref 23; read-out: Tubulin polymerisation IC50; cited from earlier work.

A word on the IC50: it is the concentration that inhibits the measured activity by half. On to `COc1ccc(-c2sc(NC(C)=O)nc2-c2ccc(OC)c3ccccc23)cc1` [6a], for which the IC50 worked out at 16.1 ± 0.83 µM in test [1] (Homo sapiens, A549) and 2.16 ± 0.27 µM in test [2] (Homo sapiens, MCF7).

For the compound `COc1ccc(-c2sc(NC(=O)C(Cl)(Cl)Cl)nc2-c2ccc(OC)c3ccccc23)cc1` [6d], the IC50 in test [3] amounted to 6.6 µM; in test [1] (Homo sapiens, A549), 1.91 ± 0.08 µM; in test [2] (Homo sapiens, MCF7), 1.03 ± 0.09 µM.

Turning to `CCC(=O)Nc1nc(-c2ccc(OC)c3ccccc23)c(-c2ccc(OC)cc2)s1` [6b], the IC50 was determined as 40.32 ± 0.32 µM in test [1] (Homo sapiens, A549) and 14.8 ± 0.45 µM in test [2] (Homo sapiens, MCF7).

Consider `CCOc1ccc(-c2sc(NC(=O)CC)nc2-c2ccc(OC)c3ccccc23)cc1` [6g], for which the half-maximal inhibitory concentration (IC50) in test [1] (Homo sapiens, A549) was 18.7 ± 0.89 µM; in test [2] (Homo sapiens, MCF7), 9.61 ± 0.54 µM.

As to `COc1ccc(-c2sc(NC(=O)C(C)C)nc2-c2ccc(OC)c3ccccc23)cc1` [6e], the IC50 in test [1] (Homo sapiens, A549) was over 50 µM; in test [2] (Homo sapiens, MCF7), 12.3 ± 0.54 µM.

`CCCC(=O)Nc1nc(-c2ccc(OC)c3ccccc23)c(-c2ccc(OC)cc2)s1` [6c]: the IC50 is over 50 µM in test [1] (Homo sapiens, A549) and 14.9 ± 0.34 µM in test [2] (Homo sapiens, MCF7).

Turning to `CCOc1ccc(-c2sc(NC(=O)C(C)C)nc2-c2ccc(OC)c3ccccc23)cc1` [6i], the 50% inhibitory concentration (IC50) in test [1] (Homo sapiens, A549) was over 50 µM; in test [2] (Homo sapiens, MCF7) it was 7.69 ± 0.34 µM.

Regarding `COc1cc(-c2sc(NC(=O)C(C)C)nc2-c2ccc(OC)c3ccccc23)c(Br)c(OC)c1OC` [6k], the IC50 in test [1] (Homo sapiens, A549) was over 50 µM; in test [2] (Homo sapiens, MCF7), over 50 µM.

As for `COc1ccc(/C=C\c2cc(OC)c(OC)c(OC)c2)cc1O` [CA-4, combretastatin A-4, reference compound], it took 0.029 ± 0.004 µM to reach half-maximal inhibition in test [1] (Homo sapiens, A549) (IC50).

Take `COc1ccc(-c2sc(N)nc2-c2ccc(OC)c3ccccc23)cc1` [5a]: the IC50 in test [1] (Homo sapiens, A549) was 2.72 ± 0.18 µM; in test [2] (Homo sapiens, MCF7), 1.8 ± 0.07 µM.

As to `CCC(=O)Nc1nc(-c2ccc(OC)c3ccccc23)c(-c2cc(OC)c(OC)c(OC)c2Br)s1` [6j], the half-maximal inhibitory concentration (IC50) is over 50 µM in test [1] (Homo sapiens, A549) and over 50 µM in test [2] (Homo sapiens, MCF7).

Regarding `N.N.[Cl][Pt][Cl]` [Cisplatin, reference compound], the figures for the IC50 in test [1] and in test [2] were 4.92 ± 0.56 µM and 11.2 ± 0.75 µM, respectively.

In the case of `CCOc1ccc(-c2sc(N)nc2-c2ccc(OC)c3ccccc23)cc1` [5b], the 50% inhibitory concentration (IC50) in test [3] was 3.3 µM; in test [5], 16.4 ± 4.61 µM; in test [1] (Homo sapiens, A549), 0.97 ± 0.13 µM; in test [2] (Homo sapiens, MCF7), 0.48 ± 0.03 µM. The Q1 quadrant is 0.25 in test [4] (5b 0.3125 μM), 0.44 in test [4] (5b 0.625 μM) and 0.55 in test [4] (5b 1.25 μM). The Q2 quadrant in test [4] (5b 0.3125 μM) was found to be 10.2; in test [4] (5b 0.625 μM) it was 14.8; in test [4] (5b 1.25 μM), 15.1. For the same compound, the results for the Q3 quadrant in test [4] (5b 0.3125 μM), in test [4] (5b 0.625 μM) and in test [4] (5b 1.25 μM) were 5.58, 10.8 and 12.6, respectively. Also, the Q4 quadrant amounted to 83.9 in test [4] (5b 0.3125 μM), 74.0 in test [4] (5b 0.625 μM) and 71.8 in test [4] (5b 1.25 μM). For the same compound, the “total numbers of early and late apoptotic cells” value in test [4] (5b 0.3125 μM) came to 15.78%; in test [4] (5b 0.625 μM), 25.6%; in test [4] (5b 1.25 μM), 27.7%. Further, the “G2 (G2/M) population” value in test [6] (5b 0.3125 μM) came to 29.03%; in test [6] (5b 0.625 μM) it was 47.32%; in test [6] (5b 1.25 μM) it was 72.49%. The S population in test [6] (5b 0.3125 μM) is listed as 28.11%; in test [6] (5b 0.625 μM), 36.61%; in test [6] (5b 1.25 μM) it was 20.22%. Besides, the values for the G1 population in test [6] (5b 0.3125 μM), in test [6] (5b 0.625 μM) and in test [6] (5b 1.25 μM) were 42.86%, 16.06% and 7.29%, respectively.

As to `CCOc1ccc(-c2sc(NC(C)=O)nc2-c2ccc(OC)c3ccccc23)cc1` [6f], the 50% inhibitory concentration (IC50) in test [1] (Homo sapiens, A549) worked out at 7 ± 0.3 µM; in test [2] (Homo sapiens, MCF7), 5.49 ± 0.84 µM.

On to `CCC(=O)N(C(C)=O)c1nc(-c2ccc(OC)c3ccccc23)c(-c2cc(OC)c(OC)c(OC)c2Br)s1` [6n, N-acetyl-N-(5-(2-bromo-3,4,5-trimethoxyphenyl)-4-(4-methoxynaphthalen-1-yl)thiazol-2-yl)propionamide], for which the IC50 was 16.3 ± 0.89 µM in test [1] (Homo sapiens, A549) and 13.5 ± 0.82 µM in test [2] (Homo sapiens, MCF7).

As for `CCCC(=O)Nc1nc(-c2ccc(OC)c3ccccc23)c(-c2ccc(OCC)cc2)s1` [6h], the IC50 in test [1] (Homo sapiens, A549) was over 50 µM; in test [2] (Homo sapiens, MCF7) it was 7.18 ± 0.78 µM.

Regarding `COc1cc(-c2sc(N)nc2-c2ccc(OC)c3ccccc23)c(Br)c(OC)c1OC` [5c], the IC50 in test [1] (Homo sapiens, A549) is over 50 µM; in test [2] (Homo sapiens, MCF7), 31.1 ± 0.7 µM.

In the case of `CCCC(=O)N(C(=O)CCC)c1nc(-c2ccc(OC)c3ccccc23)c(-c2cc(OC)c(OC)c(OC)c2Br)s1` [6m], the half-maximal inhibitory concentration (IC50) was over 50 µM in test [1] (Homo sapiens, A549) and over 50 µM in test [2] (Homo sapiens, MCF7).

On to `COc1cc2nc(/C=N/c3cccnc3Nc3ccc(Cl)cc3)sc2c(OC)c1OC` [IV], for which, in test [7], the IC50 was 8.4 µM.
